Structures can show the parent of a compound that is named as a salt.

The test system of experiment [1] is complement system. Particulars: literature, in words; cited from earlier work.
Experiment [2] concerns the target T1, activated human C1 (Homo sapiens, UniProt P09871).
T1 construct: fluid-phase human C2 as substrate in presence of C4
Briefly: Test Code 026 (C1 inhibitor). In kind it is biochemical. The conditions noted are these: well number in twofold serial dilution assay, higher = more active. From the text:
(§1) An active inhibitor protects C2 from C1 and C4; (ii) Test Code 035 (C3-C9 inhibitor)--This test determines the ability of the late components of human complement (C3-C9) to lyse EAC 142 in the presence of appropriate dilutions of the test compound. An active inhibitor protects EAC 142 from lysis by human C3-C9; (iii) Test Code 036 (C-Shunt inhibitor)--In this test human erythrocytes rendered fragile are lysed in autologous serum via the shunt pathway activated by cobra venom factor in the presence of appropriate dilutions of the test compound. Inhibition of the shunt pathway results in failure of lysis; (iv) Forssman Vasculitis Test--Here, the well known complement dependent lesion, Forssman vasculitis, is produced in guinea pigs by intradermal injection of rabbit anti-Forssman antiserum. The lesion is measured in terms of diameter, edema and hemorrhage and the extent to which a combined index of these is inhibited by prior intraperitoneal injection of the test compound at 200 mg/kg is then reported, unless otherwise stated; (v) Forssman Shock Test--Lethal shock is produced in guinea pigs by an i.v. injection of anti-Forssman antiserum and the harmonic mean death time of treated guinea pigs is compared with that of simultaneous controls; (vi) Complement Level Reduction Test--In this test, the above dosed guinea pigs, or others, are bled for serum and the complement level is determined in undiluted serum by the capillary tube method of U.S. Pat. No. 3,876,376 and compared to undosed control guinea pigs; and (viii) Cap 50 Test--Here, appropriate amounts of the test compound are added to a pool of guinea pig serum in vitro, after which the undiluted serum capillary tube assay referred to about is run. The concentration of compound inhibiting 50% is reported.

In experiment [3] the test system is late components of human complement (C3-C9). Briefly: Test Code 035 (C3-C9 inhibitor), lysis of EAC 142. It counts as cell-based.
Description: as §1

For experiment [4], the system named is whole complement. Briefly: Complement Level Reduction Test (in vivo, guinea pig; serum whole complement by capillary tube assay).
Description: as §1
With reference to Table I. guinea pigs weighing about 300 g were dosed intravenously (i.v.) or intraperitoneally (i.p.) with 200 mg/kg of the test compound dissolved in saline and adjusted to pH 7-8. […] The serum was tested for whole complement using the capillary tube assay. Percent inhibition was calculated by comparison with simultaneous controls. The results appear in Table I together with results of tests code 026, 035, 036, Cap 50, % inhibition and Forssman shock.

The test system of experiment [5] is shunt pathway. As to the kind of experiment: Test Code 036 (C-Shunt inhibitor), lysis of human erythrocytes via the shunt pathway activated by cobra venom factor. In kind it is cell-based.
Description: as §1

Experiment [6] relates to hereditary angioneurotic edema. Particulars: literature, in words; cited from earlier work.
Experiment [7] deals with human serum complement. The conditions noted are these: in vitro and in vivo; reduction in total hemolytic complement activity; cited from earlier work.
Setting [8] is: Table I, well number in twofold serial dilution assay, higher = more active.
Where [9] appears, read: Table II (Intermediates), twofold serial dilution assay.

T1 sequence (P09871 16-688): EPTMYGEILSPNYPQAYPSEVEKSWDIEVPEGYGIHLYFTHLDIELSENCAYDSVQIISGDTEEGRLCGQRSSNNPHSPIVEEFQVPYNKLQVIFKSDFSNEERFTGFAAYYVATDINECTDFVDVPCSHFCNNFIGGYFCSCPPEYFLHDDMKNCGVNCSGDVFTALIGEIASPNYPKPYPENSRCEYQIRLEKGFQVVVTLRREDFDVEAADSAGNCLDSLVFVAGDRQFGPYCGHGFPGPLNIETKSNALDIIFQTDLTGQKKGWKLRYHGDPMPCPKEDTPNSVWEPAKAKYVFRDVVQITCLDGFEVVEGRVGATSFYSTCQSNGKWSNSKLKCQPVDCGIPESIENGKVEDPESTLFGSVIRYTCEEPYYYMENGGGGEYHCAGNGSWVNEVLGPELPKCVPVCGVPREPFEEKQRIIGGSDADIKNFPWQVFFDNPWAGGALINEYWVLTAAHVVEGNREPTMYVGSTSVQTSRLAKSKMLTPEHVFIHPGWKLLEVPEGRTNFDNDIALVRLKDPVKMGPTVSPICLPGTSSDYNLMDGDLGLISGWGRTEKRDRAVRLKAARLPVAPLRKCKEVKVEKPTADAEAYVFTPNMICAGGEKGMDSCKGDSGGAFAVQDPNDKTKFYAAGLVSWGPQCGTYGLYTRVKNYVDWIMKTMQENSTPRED
T1 sequence (P00736 18-705 partner): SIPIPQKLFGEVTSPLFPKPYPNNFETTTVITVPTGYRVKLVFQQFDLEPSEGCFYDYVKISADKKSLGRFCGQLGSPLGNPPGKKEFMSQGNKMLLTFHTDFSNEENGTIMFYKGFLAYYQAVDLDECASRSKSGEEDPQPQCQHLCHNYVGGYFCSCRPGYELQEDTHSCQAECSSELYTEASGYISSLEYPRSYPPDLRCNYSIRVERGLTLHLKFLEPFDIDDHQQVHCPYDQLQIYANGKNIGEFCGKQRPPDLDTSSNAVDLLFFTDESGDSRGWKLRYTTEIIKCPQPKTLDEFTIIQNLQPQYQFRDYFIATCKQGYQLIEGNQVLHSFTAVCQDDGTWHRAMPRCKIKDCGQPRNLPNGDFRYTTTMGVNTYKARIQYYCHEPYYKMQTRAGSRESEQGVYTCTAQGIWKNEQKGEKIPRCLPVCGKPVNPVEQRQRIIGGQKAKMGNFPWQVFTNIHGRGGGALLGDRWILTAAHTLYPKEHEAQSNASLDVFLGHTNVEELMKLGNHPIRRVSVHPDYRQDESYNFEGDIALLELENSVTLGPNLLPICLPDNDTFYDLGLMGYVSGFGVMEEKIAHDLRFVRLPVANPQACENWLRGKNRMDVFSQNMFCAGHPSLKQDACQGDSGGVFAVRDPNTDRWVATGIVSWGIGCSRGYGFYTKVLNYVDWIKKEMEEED
T1 sequence (P02745 23-245 partner): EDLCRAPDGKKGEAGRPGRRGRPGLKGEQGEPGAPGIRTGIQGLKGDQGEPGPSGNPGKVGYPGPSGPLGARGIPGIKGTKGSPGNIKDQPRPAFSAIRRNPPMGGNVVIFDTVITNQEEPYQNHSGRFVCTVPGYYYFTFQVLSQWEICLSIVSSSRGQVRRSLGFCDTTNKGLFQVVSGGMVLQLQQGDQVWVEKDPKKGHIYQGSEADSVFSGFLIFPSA
T1 sequence (P02746 28-253 partner): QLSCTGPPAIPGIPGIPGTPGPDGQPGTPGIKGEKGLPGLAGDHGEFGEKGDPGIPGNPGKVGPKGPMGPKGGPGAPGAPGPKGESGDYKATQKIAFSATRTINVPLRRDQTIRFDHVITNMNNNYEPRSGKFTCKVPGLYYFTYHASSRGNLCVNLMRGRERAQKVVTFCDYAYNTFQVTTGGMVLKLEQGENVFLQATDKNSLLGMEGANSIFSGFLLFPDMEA
T1 sequence (P02747 29-245 partner): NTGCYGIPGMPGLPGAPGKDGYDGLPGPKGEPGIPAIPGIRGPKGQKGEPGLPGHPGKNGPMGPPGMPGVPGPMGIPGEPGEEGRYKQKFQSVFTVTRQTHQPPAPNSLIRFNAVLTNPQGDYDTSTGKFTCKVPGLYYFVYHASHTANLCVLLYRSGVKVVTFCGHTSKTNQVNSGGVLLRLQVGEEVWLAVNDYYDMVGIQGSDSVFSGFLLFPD

Consider `Nc1ccc2cc(S(=O)(=O)O)cc(O)c2c1N=Nc1ccc(NC(=O)Nc2ccc(N=Nc3c(N)ccc4cc(S(=O)(=O)O)cc(O)c34)c(S(=O)(=O)O)c2)cc1S(=O)(=O)O` [chloroazol fast pink, 3,3'-ureylenebis[6-(2-amino-8-hydroxy-6-sulfo-1-naphthylazo)benezenesulfonic acid], tetrasodium salt], for which the “anticomplementary effect / complement inhibition” value in experiment [1] is on record as “anticomplementary effect”.
On to `O=C(Nc1ccc(C(=O)Nc2ccc(C(=O)Nc3cc(S(=O)(=O)O)cc4cc(S(=O)(=O)O)cc(S(=O)(=O)O)c34)c(S(=O)(=O)O)c2)c(S(=O)(=O)O)c1)Nc1ccc(C(=O)Nc2ccc(C(=O)Nc3cc(S(=O)(=O)O)cc4cc(S(=O)(=O)O)cc(S(=O)(=O)O)c34)c(S(=O)(=O)O)c2)c(S(=O)(=O)O)c1` [8,8'-[Ureylenebis[(2-sulfo-4,1-phenylenecarbonyl)-imino](2-sulfo-4,1-phenylenecarbonyl)imino]di-1,3,6-naphthalenetrisulfonic acid, decasodium salt], for which the “Cl 026 Wells” value in experiment [2] (Table I) is “+8 wells”. Moreover, in experiment [3] (setting [8]), the “C-Late 035 Wells” value is reported as “+1 wells”. For the same compound, in experiment [4] (Table I, i.p. 200 mg/kg), the “% Inhibition, Intraperitoneal, 30 minutes” value was -68%; the “% Inhibition, Intraperitoneal, 60 minutes” value (from here on “% Inhibition … 60 minutes”) is given as -24%; the “% Inhibition, Intraperitoneal, 120 minutes” value is reported as -14%.
As to `Nc1ccc(C(=O)Nc2ccc(C(=O)Nc3ccc(S(=O)(=O)[O-])c4cc(S(=O)(=O)[O-])cc(S(=O)(=O)[O-])c34)c(S(=O)(=O)[O-])c2)c(S(=O)(=O)[O-])c1.[Na+].[Na+].[Na+].[Na+].[Na+]` [8-[4-(4-Amino-2-sulfobenzamido)-2-sulfobenzamido]-1,3,5-naphthalenetrisulfonic acid, pentasodium salt], the “Cl 026 Wells” value in experiment [2] (Table II (Intermediates)) is “+4 wells”. Moreover, the “C-Late 035 Wells” value in experiment [3] (setting [9]) is reported as “N”. Further, the “Shunt Inhibition 036 Wells” value in experiment [5] (setting [9]) is “N”. Besides, in experiment [4] (Table II (Intermediates), i.p.), the “% Inhibition, Intraperitoneal, 30 minutes” value is listed as -15%; the “% Inhibition … 60 minutes” value is -17%; the “% Inhibition, Intraperitoneal, 120 minutes” value is -23%. Besides, in experiment [4] (Table II (Intermediates), i.v.), the “% Inhibition, Intravenous, 2 minutes” value was -52%; the “% Inhibition, Intravenous, 30 minutes” value is recorded as -28%; the “% Inhibition, Intravenous, 120 minutes” value is -10%.
Consider `NCCCCCC(=O)O` [epsilon-aminocaproic acid], for which the “success in the treatment of hereditary angioneurotic edema” value in experiment [6] is “used with success in the treatment of hereditary angioneurotic edema”.
Take `Nc1ccc(C(=O)Nc2cc(C(=O)O)cc(C(=O)Nc3ccc(S(=O)(=O)[O-])c4cc(S(=O)(=O)[O-])cc(S(=O)(=O)[O-])c34)c2)c(S(=O)(=O)[O-])c1.[Na+].[Na+].[Na+].[Na+]` [5-(4-Amino-2-sulfobenzamido)-N-(4,6,8-trisulfo-1-naphthyl)isophthalamic acid, tetrasodium salt]: the “Cl 026 Wells” value in experiment [2] (Table II (Intermediates)) is “+3 wells”. For the same compound, in experiment [3] (setting [9]), the “C-Late 035 Wells” value is “N”. Also, the “Shunt Inhibition 036 Wells” value in experiment [5] (setting [9]) is listed as “N”.
Take `O=C(Nc1cc(C(=O)O)cc(C(=O)Nc2cc(C(=O)O)cc(C(=O)Nc3ccc(S(=O)(=O)O)c4cc(S(=O)(=O)O)cc(S(=O)(=O)O)c34)c2)c1)Nc1cc(C(=O)O)cc(C(=O)Nc2cc(C(=O)O)cc(C(=O)Nc3ccc(S(=O)(=O)O)c4cc(S(=O)(=O)O)cc(S(=O)(=O)O)c34)c2)c1` [5,5'-Ureylenebis[N-[3-carboxy-5-(4,6,8-trisulfo-1-naphthylca] [5,5'-Ureylenebis[N-[3-carboxy-5-(4,6,8-trisulfo-1-naphthaylcarbamoyl)phenyl]isophthalamic acid], decasodium salt]: in experiment [3] (setting [8]), the “C-Late 035 Wells” value is “+2 wells”. Further, in experiment [4] (Table I, i.p. 200 mg/kg), the “% Inhibition, Intraperitoneal, 30 minutes” value is recorded as -86%; the “% Inhibition … 60 minutes” value is listed as -89%; the “% Inhibition, Intraperitoneal, 120 minutes” value was -96%.
As for `O=C(Nc1ccc(C(=O)Nc2ccc(C(=O)Nc3ccc(S(=O)(=O)[O-])c4cc(S(=O)(=O)[O-])cc(S(=O)(=O)[O-])c34)c(S(=O)(=O)[O-])c2)c(S(=O)(=O)[O-])c1)Nc1ccc(C(=O)Nc2ccc(C(=O)Nc3ccc(S(=O)(=O)[O-])c4cc(S(=O)(=O)[O-])cc(S(=O)(=O)[O-])c34)c(S(=O)(=O)[O-])c2)c(S(=O)(=O)[O-])c1.[Na+].[Na+].[Na+].[Na+].[Na+].[Na+].[Na+].[Na+].[Na+].[Na+]` [8,8'-[Ureylenebis[(2-sulfo-4,1-phenylenecarbonyl)imino(2-sulfo-4,1-phenylenecarbonyl)imino]]di-1,3,5-naphthalenetrisulfonic acid, decasodium salt], in experiment [2] (Table I), the “Cl 026 Wells” value is given as “+7 wells”. The “C-Late 035 Wells” value in experiment [3] (setting [8]) was “+1 wells”. The “Shunt Inhibition 036 Wells” value in experiment [5] (setting [8]) was “+4 wells”. In addition, in experiment [4] (Table I, i.p. 200 mg/kg), the “% Inhibition, Intraperitoneal, 30 minutes” value is reported as -31%; the “% Inhibition … 60 minutes” value is listed as -36%; the “% Inhibition, Intraperitoneal, 120 minutes” value was -58%. In experiment [4] (Table I, i.v. 200 mg/kg), the “% Inhibition, Intravenous, 2 minutes” value is recorded as -38%; the “% Inhibition, Intravenous, 30 minutes” value is -47%; the “% Inhibition, Intravenous, 120 minutes” value is -22%.
Consider `Cc1ccc(C(=O)Nc2ccc(S(=O)(=O)O)c3cc(S(=O)(=O)O)cc(S(=O)(=O)O)c23)cc1NC(=O)c1cccc(NC(=O)Nc2cccc(C(=O)Nc3cc(C(=O)Nc4ccc(S(=O)(=O)O)c5cc(S(=O)(=O)O)cc(S(=O)(=O)O)c45)ccc3C)c2)c1` [Suramin, reference compound], for which the “Cl 026 Wells” value in experiment [2] (Table I) is listed as “+4 wells”. Besides, in experiment [4] (Table I, i.p. 200 mg/kg), the “% Inhibition, Intraperitoneal, 30 minutes” value is reported as -9%; the “% Inhibition … 60 minutes” value is -17%; the “% Inhibition, Intraperitoneal, 120 minutes” value is recorded as -44%. For the same compound, the “anticomplementary effect / complement inhibition” value in experiment [1] is listed as “moderately active as a complement inhibitor”.
On to pentosan-polysulfoester, for which the “anticomplementary activity on human serum” value in experiment [7] is “anticomplementary activity on human serum, both in vitro and in vivo”.
Take `NC[C@H]1CC[C@H](C(=O)O)CC1` [tranexamic acid]: in experiment [6], the “success in the treatment of hereditary angioneurotic edema” value was “used with success in the treatment of hereditary angioneurotic edema”.
On to `Nc1cc(C(=O)O)cc(C(=O)Nc2cc(C(=O)O)cc(C(=O)Nc3ccc(S(=O)(=O)[O-])c4cc(S(=O)(=O)[O-])cc(S(=O)(=O)[O-])c34)c2)c1.[Na+].[Na+].[Na+]` [5-Amino-3'-carboxy-5'-(4,6,8-trisulfo-1-naphthylcarbamoyl)isophthalanilic acid, trisodium salt], for which the “Cl 026 Wells” value in experiment [2] (Table II (Intermediates)) is recorded as “+3 wells”. Also, in experiment [3] (setting [9]), the “C-Late 035 Wells” value was “N”. The “Shunt Inhibition 036 Wells” value in experiment [5] (setting [9]) was “N”.
As to `Nc1ccc(C(=O)Nc2ccc(C(=O)Nc3cc(S(=O)(=O)[O-])cc4cc(S(=O)(=O)[O-])cc(S(=O)(=O)[O-])c34)c(S(=O)(=O)[O-])c2)c(S(=O)(=O)[O-])c1.[Na+].[Na+].[Na+].[Na+].[Na+]` [8-[4-(4-Amino-2-sulfobenzamido)-2-sulfobenzamido]-1,3,6-naphthalenetrisulfonic acid pentasodium salt], the “Cl 026 Wells” value in experiment [2] (Table II (Intermediates)) is recorded as “+5 wells”. Further, in experiment [3] (setting [9]), the “C-Late 035 Wells” value was “N”. The “Shunt Inhibition 036 Wells” value in experiment [5] (setting [9]) is “N”. Moreover, in experiment [4] (Table II (Intermediates), i.v.), the “% Inhibition, Intravenous, 2 minutes” value was -77%; the “% Inhibition, Intravenous, 30 minutes” value is listed as -43%; the “% Inhibition, Intravenous, 120 minutes” value is -31%.
For `O=C(Nc1ccc(C(=O)Nc2cc(C(=O)O)cc(C(=O)Nc3ccc(S(=O)(=O)O)c4cc(S(=O)(=O)O)cc(S(=O)(=O)O)c34)c2)c(S(=O)(=O)O)c1)Nc1ccc(C(=O)Nc2cc(C(=O)O)cc(C(=O)Nc3ccc(S(=O)(=O)O)c4cc(S(=O)(=O)O)cc(S(=O)(=O)O)c34)c2)c(S(=O)(=O)O)c1` [5,5'-[Ureylenebis[(2-sulfo-4,1-phenylenecarbonyl)-imino]]bis[N-4,6,8-trisulfo-1-naphthylisophthalamic acid], octasodium salt], the “Cl 026 Wells” value in experiment [2] (Table I) is “+6 wells”. Besides, the “C-Late 035 Wells” value in experiment [3] (setting [8]) is on record as “+2 wells”. Also, the “Shunt Inhibition 036 Wells” value in experiment [5] (setting [8]) is listed as “+5 wells”.
On to heparin, for which, in experiment [1], the “anticomplementary effect / complement inhibition” value is listed as “anticomplementary effect”.

Values taken from patent US4185032A, “Ureylene phenylene anionic naphthalenesulfonic acids” (American Cyanamid Company, priority 1978, dated 1980).
